# Experimental data published in patent USRE38117E1, “Trioxane dimer compound having antiproliferative and antitumor activities” (Hauser, Inc., priority 1995, dated 2003).
# Assays:
# Format in all cases: cell-based
# [1] = system: SR; assay: NCI 60 cell line screen (SRB), Leukemia
# [2] = system: UO-31; assay: NCI 60 cell line screen (SRB), Renal Cancer; conditions: UO-31 (Renal Cancer)
# [3] = system: IGROVI; assay: NCI 60 cell line screen (SRB), Ovarian Cancer
# [4] = system: OVCAR-5; assay: NCI 60 cell line screen (SRB), Ovarian Cancer; conditions: OVCAR-5 (Ovarian Cancer)
# [5] = system: SK-MEL-2; assay: NCI 60 cell line screen (SRB), Melanoma; conditions: SK-MEL-2 (Melanoma)
# [6] = system: NCI-H226; assay: NCI 60 cell line screen (SRB), Non-Small Cell Lung Cancer
# [7] = system: PC-3; assay: NCI 60 cell line screen (SRB), Prostate Cancer; conditions: PC-3 (Prostate Cancer)
# [8] = system: SW-620; assay: NCI 60 cell line screen (SRB), Colon Cancer; conditions: SW-620 (Colon Cancer)
# [9] = system: T-47D; assay: NCI 60 cell line screen (SRB), Breast Cancer; conditions: T-47D (Breast Cancer)
# [10] = system: HL-60(TB); assay: NCI 60 cell line screen (SRB), Leukemia; conditions: HL-60(TB) (Leukemia)
# [11] = system: OVCAR-8; assay: NCI 60 cell line screen (SRB), Ovarian Cancer; conditions: OVCAR-8 (Ovarian Cancer)
# [12] = system: KM12; assay: NCI 60 cell line screen (SRB), Colon Cancer
# [13] = system: M14; assay: NCI 60 cell line screen (SRB), Melanoma
# [14] = system: BT-549; assay: NCI 60 cell line screen (SRB), Breast Cancer; conditions: BT-549 (Breast Cancer)
# [15] = system: A549/ATCC; assay: NCI 60 cell line screen (SRB), Non-Small Cell Lung Cancer
# [16] = system: HT29; assay: NCI 60 cell line screen (SRB), Colon Cancer
# [17] = system: RPMI-8226; assay: NCI 60 cell line screen (SRB), Leukemia; conditions: RPMI-8226 (Leukemia)
# [18] = system: COLO 205; assay: NCI 60 cell line screen (SRB), Colon Cancer; conditions: COLO 205 (Colon Cancer)
# [19] = system: MCF7; assay: NCI 60 cell line screen (SRB), Breast Cancer
# [20] = system: SNB-19; assay: NCI 60 cell line screen (SRB), CNS Cancer; conditions: SNB-19 (CNS Cancer)
compound,measurement,setting,value
"C[C@@H]1CC[C@H]2[C@@H](C)C(=O)O[C@@H]3O[C@@]4(C)CC[C@@H]1[C@]32OO4 [QHS, 3,6,9-trimethyl-9,10b-epidioxyperhydropyrano[4,3,2-jk]benzoxepin-2-one, reference compound]",Log10GI50,[1],>−4.00 M
same,Log10LC50,[1],>−4.00 M
same,Log10TGI,[1],>−4.00 M
same,Log10GI50,[2],−4.06 M
same,Log10LC50,[2],>−4.00 M
same,Log10TGI,[2],−4.00 M
same,Log10GI50,[3],−4.31 M
same,Log10LC50,[3],>−4.00 M
same,Log10TGI,[3],>−4.00 M
same,Log10GI50,[4],>−4.00 M
same,Log10LC50,[4],>−4.00 M
same,Log10TGI,[4],>−4.00 M
same,Log10LC50,[5],>−4.00 M
same,Log10TGI,[5],>−4.00 M
same,Log10GI50,[6],>−4.00 M
same,Log10LC50,[6],>−4.00 M
same,Log10TGI,[6],>−4.00 M
same,Log10GI50,[7],−4.17 M
same,Log10LC50,[7],>−4.00 M
same,Log10TGI,[7],>−4.00 M
same,Log10GI50,[8],>−4.00 M
same,Log10LC50,[8],>−4.00 M
same,Log10TGI,[8],>−4.00 M
same,Log10LC50,[9],>−4.00 M
same,Log10TGI,[9],>−4.00 M
same,Log10GI50,[10],−4.26 M
same,Log10LC50,[10],>−4.00 M
same,Log10TGI,[10],−4.00 M
same,Log10GI50,[11],>−4.00 M
same,Log10LC50,[11],>−4.00 M
same,Log10TGI,[11],>−4.00 M
same,Log10GI50,[12],>−4.00 M
same,Log10LC50,[12],>−4.00 M
same,Log10TGI,[12],>−4.00 M
same,Log10LC50,[13],>−4.00 M
same,Log10TGI,[13],>−4.00 M
same,Log10GI50,[14],−4.06 M
same,Log10LC50,[14],>−4.00 M
same,Log10TGI,[14],−4.00 M
same,Log10GI50,[15],−4.17 M
same,Log10LC50,[15],>−4.00 M
same,Log10TGI,[15],>−4.00 M
same,Log10GI50,[16],>−4.00 M
same,Log10LC50,[16],>−4.00 M
same,Log10TGI,[16],>−4.00 M
same,Log10GI50,[17],>−4.00 M
same,Log10LC50,[17],>−4.00 M
same,Log10TGI,[17],>−4.00 M
same,Log10GI50,[18],>−4.00 M
same,Log10LC50,[18],>−4.00 M
same,Log10TGI,[18],>−4.00 M
same,Log10GI50,[19],>−4.00 M
same,Log10LC50,[19],>−4.00 M
same,Log10TGI,[19],>−4.00 M
same,Log10GI50,[20],>−4.00 M
same,Log10LC50,[20],>−4.00 M
same,Log10TGI,[20],>−4.00 M
